The test system of test [1] is patients with long-standing RA. Briefly: Study 4: change in dosing of concomitant corticosteroids and methotrexate. In kind it is in vivo, human. From the text: The mean corticosteroid dose (mg/day) at baseline was 5.56, where the mean corticosteroid dose (mg/day) at the final dose was 3.57 (p<0.0001 (determined by Wilcoxon's signed rank test)).
There was also a change in the dosing of concomitant methotrexate for RA patients in the study being treated with adalimumab. […] For only 8% of patients was the dose of mtx increased.

For test [2], the system named is patients with severe RA who had failed at least one DMARD. Briefly: Study 2 / Study 3 OLE (adalimumab 40 mg eow monotherapy): HUI3 health utility. The following applies: for mean HUI3 change from baseline: week 26 (6 months), monotherapy. In kind it is in vivo, human. The protocol:
(§1) In addition to the SF-36 instrument, the Health Utilities Index Mark 3 (HUI3) and the Functional Assessment of Chronic Illness Therapy-Fatigue (FACIT-F) questionnaires were administered at baseline, 12 weeks, and the end of the study.
(§2) The HUI3 scale is 0-1, with “1” denoting perfect health and “0” denoting death. FACIT-F scores range from 0-52, with higher scores representing less fatigue. The SF-36 includes one multi-item scale that assesses eight different dimensions of health, including physical and psychosocial components. For each dimension a value of 0-100 is given, with higher numbers representing less impairment. Changes in HUI3 of ≧0.03, in FACIT-F of ≧4 and in SF-36 of ≧4.4 (physical subscales) and ≧3.1 (mental subscales) are considered clinically meaningful.
The HUI3 was assessed at baseline, and at several time points during the study. Health Utility Index 3 (scale=0-1) measures preference of a health state, with “1” denoting perfect health and “0” denoting death. HUI3 changes of ≧0.03 are considered clinically important. The HUI3 classification system consists of 8 attributes and 5 or 6 levels on each attribute, ranging from full function to severe impairment.
Inclusion criteria for this study included: all patients had severe active disease; and all patients had failed prior DMARD(s).
The Health Utilities Index Mark 3 (HUI3) was assessed at three time points. HUI 3 consists of 8 attributes: vision, hearing, speech, ambulation, dexterity, emotion, cognition, and pain. HUI3 score changes of ≧0.03 are considered clinically important. […] As can also be seen in this figure, the Study 2 study population started with baseline values reflecting a patient population with a more severe disease activity than in Study I, as documented by TJC, SJC, HAQ, CRP, and number of previous DMARDs.
In addition to clinical parameters, the SF-36 instrument, the Health Utilities Index Mark 3 (HUI3), and the Functional Assessment of Chronic Illness Therapy-Fatigue (FACIT-F) questionnaires were administered at baseline, and at weeks 12, 26, 50, 74, 98, 122, 146 and 170, respectively. The HUI3 scale ranges from 0-1, with “1” denoting perfect health and “0” denoting death. FACIT-F scores range from 0-52, with higher scores representing less fatigue. SF-36 scores range from 0-100 with higher scores indicating improvement in HRQoL. Changes in HUI3 scores of ≧0.03, 1 FACIT-F scores of ≧4, 2 and individual SF-36 domain scores of 5-103 are considered clinically meaningful.

Test [3] deals with patients with severe RA who had failed MTX. Briefly: Study 2 / Study 3 OLE (adalimumab monotherapy): SF-36. The following applies: within 26 weeks. In kind it is in vivo, human. The protocol: as §1, §2
In addition to clinical parameters, the SF-36 instrument, the Health Utilities Index Mark 3 (HUI3), and the Functional Assessment of Chronic Illness Therapy-Fatigue (FACIT-F) questionnaires were administered at baseline, and at weeks 12, 26, 50, 74, 98, 122, 146 and 170, respectively. The HUI3 scale ranges from 0-1, with “1” denoting perfect health and “0” denoting death. FACIT-F scores range from 0-52, with higher scores representing less fatigue. SF-36 scores range from 0-100 with higher scores indicating improvement in HRQoL. […]

The subject of test [4] is patients with moderate to severe rheumatoid arthritis. Nature of the test: Study C: DAS28. In kind it is in vivo, human. The protocol: The Canadian Adalimumab Clinical Trial (Study C) was an open-label, multi-center, Phase IIIb study conducted in Canada. […] Efficacy and safety were assessed at baseline, 4, 8, and 12 weeks. Efficacy assessments included tender joint count (TJC 0-28), swollen joint count (SJC 0-28), Disease Activity Score 28 (DAS28), Health Assessment Questionnaire (HAQ), and EULAR response. This was a preliminary analysis of 236 patients. The sample size for each outcome variable is based on the data available at the time of the analysis. The data from this preliminary analysis were compared with the Week 12 data from Study A (N=2008).

For test [5], the system named is patients with active rheumatoid arthritis. The following applies: Study A (N=2008), 12 weeks; cited from earlier work.

Consider one substance from patent publication US20120171123A1, “USES AND COMPOSITIONS FOR TREATMENT OF RHEUMATOID ARTHRITIS” (priority 2006, published 2012).

Take “adalimumab: human anti-TNF mAb (HUMIRA, Abbott Laboratories), described in U.S. Pat. No. 6,090,382 as D2E7”: in test [1] (at final dose (baseline 5.56)), the “mean concomitant corticosteroid dose” value was 3.57 mg/day. In addition, the “mean concomitant mtx dose” value in test [1] (at final dose of adalimumab (baseline 15.79)) is given as 13.81 mg/week. Moreover, in test [1] (n=294), the “patients with dose reduction of steroids” value is listed as 29%, the “patients with increased steroid dose” value is given as 6% and the “patients with unchanged steroid dose” value is 40%. In addition, in test [1] (n=546), the “patients with increased mtx dose” value is reported as 8%, the “patients with mtx dose reduction” value was found to be 32% and the “patients with unchanged mtx dose” value worked out at 60%. The “patients able to discontinue steroids” value in test [1] (patients on concomitant corticosteroids, n=294) came to 24%. Also, in test [2] (week 12 through week 170), the “patients reaching HUI3 MCID of 0.03 change from baseline” value is “about 60%”. The “mean HUI3 change from baseline” value in test [2] is recorded as 0.18 a, b. Further, the “mean HUI3 change from baseline” value in test [2] (listed as ada) is reported as 0.18. The “mean HUI3 improvement from baseline” value in test [2] (week 50 (1 year)) is listed as “+0.17”. Also, in test [2] (week 50 (1 year), listed as ada), the “mean HUI3 improvement from baseline” value came to 0.17. Also, the “mean HUI3 improvement from baseline” value in test [2] (week 170 (3 years)) is reported as “+0.19”. The “mean HUI3 improvement from baseline” value in test [2] (week 170 (3 years), listed as ada) came out at 0.19. Also, in test [3], the “SF-36 scores of all subscales/domains” value is “clinically meaningful improvements”. In test [4] (Study C, 12 weeks, preliminary analysis), the “DAS28 (mean), change from baseline” value is −2.1 (116). Moreover, in test [4] (week 12), the “mean decrease in DAS28 score” value is reported as −2.1, the “patients achieving DAS28<2.6” value amounted to 10% and the “reduction in DAS28 score” value came to 32%. In test [4] (week 12 (baseline 6.5)), the “mean DAS28” value came out at 4.4. Further, in test [5], the “SJC (0-28), change from baseline, median” value is −7 and the “TJC (0-28), change from baseline, median” value is −10.
